From ChEMBL document CHEMBL1201862, “PubChem BioAssay data set” (2004)
Activity calls are given as the source filed them.

Experiments:
[1] = A Cell Based Secondary Assay To Explore Cytotoxicity of Compounds that Sensitize Mycobacterium Tuberculosis to Beta-Lactam Antibiotics.; type: functional
[2] = biological target: Cytochrome P450 3A4 (Homo sapiens, UniProt P08684); conditions: Potency;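 note: confirmatory qHTS run detecting inhibitors and substrates of CYP3A4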
[3] = NIH3T3 cell viability loss – ATP luminescence, mouse fibroblasts, counter-screen, dose response (AID 2010); type: functional, cell-based;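 note: cells exposed to compound for about 90 hours before reading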
[4] = cells; type: functional, cell-based
[5] = biological target: Nonstructural protein 1 (Influenza A virus, UniProt Q194T2); type: functional, Influenza A virus (A/California/07/2009(H1N1))
[6] = Trypanosoma cruzi growth suppression in host cells – NIH3T3 host cells, beta-gal luminescence, confirmation (AID 2044); type: functional, cell-based;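 note: intracellular parasites grown in NIH/3T3 mouse fibroblasts as host cells; luminescent beta-galactosidase reporter signal from transgenic T. cruzi replicating inside host cells; inhibitors lower the luminescence signal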
[7] = non-specific 3'UTR reporter inhibition in Clone20-Shn3RL – cell-based, Renilla luciferase, cherry-picked, counter-screen for Shn3 inhibitor project, dose response (AID 624133); type: functional
[8] = reduction of Shn3 3'UTR-driven luciferase in osteoblasts – cell-based, Clone20 osteoblasts, firefly luciferase, cherry-picked, dose response (AID 624132); type: functional;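 note: firefly luciferase luminescence from reporter carrying the Shn3 3'UTR in osteoblasts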
[9] = biological target: Luciferin 4-monooxygenase (Photinus pyralis, UniProt P08659); test: Counter Screen for Luciferase-based Assay Positives. [Related pubchem assays: 620, 618, 411 ]
[10] = cells; type: functional, cell-based; remark: listed apart in the source
[11] = test system: HT-1080; test: HT1080 cell viability loss – fluorescence readout (AID 620); type: functional, cell-based; conditions: Homo sapiens
[12] = loss of viability in HepG2 cells – cell-based, CellTiter-Glo, cherry-picked, cytotoxicity control for Shn3 inhibitor project, dose response (AID 624134); type: functional
[13] = Luminescence-based dose response cell-based high throughput screening assay for cytotoxic compounds using the IEC-6 intestinal epithelial cell line. [Related pubchem assays: 1858 (Summary AID.), 1825 (Counterscreen.), 1907 (Confirmation screen.)]; type: functional
[14] = test system: Streptococcus sp. 'group A'; test: Streptococcus pyogenes SK(-)GAS viability under kanamycin – luminescence, BacTiterGlo, confirmation, counter-screen for streptokinase expression inhibitor project, dose response (AID 1900); type: functional, organism-based
[15] = biological target: T1, Streptokinase A (Streptococcus pyogenes serotype M1, UniProt P10520); test: viability-normalized secreted streptokinase activity reduction – plasminogen activation absorbance, OD405, dose response (AID 1914); type: functional, Streptococcus pyogenes M1 GAS;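 note: secreted streptokinase activity via plasminogen activation per viability signal from cell pellet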
T1 sequence (P10520 whole entry): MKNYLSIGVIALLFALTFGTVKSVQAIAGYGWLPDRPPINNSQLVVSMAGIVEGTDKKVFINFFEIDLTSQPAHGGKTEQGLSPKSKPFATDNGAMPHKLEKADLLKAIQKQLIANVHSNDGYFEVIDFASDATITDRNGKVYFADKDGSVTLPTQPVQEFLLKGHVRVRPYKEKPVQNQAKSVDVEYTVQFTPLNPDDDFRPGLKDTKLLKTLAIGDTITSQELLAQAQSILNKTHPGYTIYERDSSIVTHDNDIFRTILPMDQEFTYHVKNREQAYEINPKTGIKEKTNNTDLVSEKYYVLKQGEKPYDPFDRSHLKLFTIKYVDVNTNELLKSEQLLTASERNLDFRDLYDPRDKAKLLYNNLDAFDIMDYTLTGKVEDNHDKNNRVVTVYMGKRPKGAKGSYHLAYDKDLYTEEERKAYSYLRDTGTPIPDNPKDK

[16] = test system: Streptococcus; test: GAS UMAA2166 growth inhibition – luminescence, BacTiterGlo, counter-screen for streptokinase expression inhibitor project, dose response (AID 1915); type: functional, organism-based;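 note: potency for reduction of bacterial viability or growth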
[17] = biological target: Trypsin (Sus scrofa, UniProt P00761); test: trypsin protease activity blockade – biochemical, quenched peptide fluorescence, cherry-pick, selectivity assay for Rce1 protease inhibitor project, dose response (AID 488789)
[18] = viability of HCT116 lacking mutant beta-catenin – cell-based, human colon tumor, dose response (AID 1045); type: functional;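 note: HCT116 colon tumor cells with beta catenin knocked out; cells exposed to compound for 60 hours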
[19] = viability of PTEN-deleted HCT116 cells – cell-based, HCT116 PTEN knockout, dose response (AID 1047); type: functional;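 note: HCT116 colon tumor cells with PTEN knocked out; cells exposed to compound for 60 hours before readout; potency for loss of cell viability measured by luminescence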
[20] = biological target: T2, Estrogen receptor (Homo sapiens, UniProt P03372);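 note: potency for inhibiting coactivator peptide recruitment to the receptor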
T2 sequence (P03372 whole entry): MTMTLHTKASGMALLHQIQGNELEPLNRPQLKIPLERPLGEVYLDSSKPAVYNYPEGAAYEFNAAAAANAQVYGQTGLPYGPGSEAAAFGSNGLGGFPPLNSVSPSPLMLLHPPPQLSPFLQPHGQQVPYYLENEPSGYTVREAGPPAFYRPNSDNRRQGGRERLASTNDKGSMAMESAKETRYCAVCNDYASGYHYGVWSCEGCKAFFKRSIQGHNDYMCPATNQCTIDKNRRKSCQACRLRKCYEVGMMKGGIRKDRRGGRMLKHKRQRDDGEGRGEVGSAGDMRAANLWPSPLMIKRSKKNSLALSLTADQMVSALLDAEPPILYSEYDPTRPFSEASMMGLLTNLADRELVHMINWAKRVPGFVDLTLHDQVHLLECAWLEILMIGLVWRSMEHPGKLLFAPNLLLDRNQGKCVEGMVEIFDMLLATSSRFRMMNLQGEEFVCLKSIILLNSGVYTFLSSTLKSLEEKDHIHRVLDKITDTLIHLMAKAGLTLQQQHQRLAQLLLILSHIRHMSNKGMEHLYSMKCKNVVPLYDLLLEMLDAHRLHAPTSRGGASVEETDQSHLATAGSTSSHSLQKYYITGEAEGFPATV

[21] = test system: Vero; test: viability of Vero cells under compound – cytotoxicity control for flavivirus capping enzyme inhibitors (AID 588742); type: functional; conditions: Chlorocebus sabaeus
[22] = biological target: T3, Aminopeptidase N (Plasmodium falciparum FcB1/Columbia, UniProt O96935); test: malaria alanyl aminopeptidase activity blockers – biochemical, fluorogenic H-Leu-NHMec substrate, 1536-well (AID 1445); design: species or system Plasmodium falciparum 3D7, 3D7
T3 sequence (O96935 whole entry): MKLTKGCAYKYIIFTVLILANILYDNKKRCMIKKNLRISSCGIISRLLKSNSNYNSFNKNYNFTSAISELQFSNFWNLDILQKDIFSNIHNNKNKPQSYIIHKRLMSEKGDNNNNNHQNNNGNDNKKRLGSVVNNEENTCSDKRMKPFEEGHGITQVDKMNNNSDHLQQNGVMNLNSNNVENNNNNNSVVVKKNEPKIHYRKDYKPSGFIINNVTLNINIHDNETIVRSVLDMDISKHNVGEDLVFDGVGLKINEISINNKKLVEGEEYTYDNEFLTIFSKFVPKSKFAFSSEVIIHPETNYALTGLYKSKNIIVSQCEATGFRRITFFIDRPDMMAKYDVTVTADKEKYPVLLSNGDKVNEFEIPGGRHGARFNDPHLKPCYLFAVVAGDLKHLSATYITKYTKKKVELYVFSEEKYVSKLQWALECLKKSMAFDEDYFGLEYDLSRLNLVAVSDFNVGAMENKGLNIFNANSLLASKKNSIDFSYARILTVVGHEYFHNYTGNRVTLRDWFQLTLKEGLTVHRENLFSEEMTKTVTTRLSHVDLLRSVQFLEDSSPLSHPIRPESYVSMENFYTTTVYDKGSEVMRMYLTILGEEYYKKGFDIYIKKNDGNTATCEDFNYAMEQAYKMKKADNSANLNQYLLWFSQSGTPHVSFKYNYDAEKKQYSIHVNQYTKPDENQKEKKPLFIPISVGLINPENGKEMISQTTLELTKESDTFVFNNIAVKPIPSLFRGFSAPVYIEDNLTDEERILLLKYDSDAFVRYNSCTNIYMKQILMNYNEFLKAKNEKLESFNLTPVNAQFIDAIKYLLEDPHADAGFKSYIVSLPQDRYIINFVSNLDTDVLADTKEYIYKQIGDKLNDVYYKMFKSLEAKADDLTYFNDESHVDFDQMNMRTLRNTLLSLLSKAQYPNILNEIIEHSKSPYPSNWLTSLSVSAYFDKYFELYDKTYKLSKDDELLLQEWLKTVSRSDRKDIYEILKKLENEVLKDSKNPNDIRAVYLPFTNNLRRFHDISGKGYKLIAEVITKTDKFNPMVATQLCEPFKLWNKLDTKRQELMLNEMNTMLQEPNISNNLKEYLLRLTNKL

[23] = biological target: T4, Heat shock factor protein 1 (Mus musculus, UniProt P38532); test: enhancement of HSF1-driven luciferase signal – cell-based, NIH3T3, luminescence, dose retest, confirmation (AID 435004); type: functional;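 note: stress induced by proteasome inhibitor MG132 added 30 min after compound; luciferase reporter driven by HSF1 response element in NIH3T3 cells; actives raise luminescence as potentiators of the MG132 stress response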
T4 sequence (P38532 whole entry): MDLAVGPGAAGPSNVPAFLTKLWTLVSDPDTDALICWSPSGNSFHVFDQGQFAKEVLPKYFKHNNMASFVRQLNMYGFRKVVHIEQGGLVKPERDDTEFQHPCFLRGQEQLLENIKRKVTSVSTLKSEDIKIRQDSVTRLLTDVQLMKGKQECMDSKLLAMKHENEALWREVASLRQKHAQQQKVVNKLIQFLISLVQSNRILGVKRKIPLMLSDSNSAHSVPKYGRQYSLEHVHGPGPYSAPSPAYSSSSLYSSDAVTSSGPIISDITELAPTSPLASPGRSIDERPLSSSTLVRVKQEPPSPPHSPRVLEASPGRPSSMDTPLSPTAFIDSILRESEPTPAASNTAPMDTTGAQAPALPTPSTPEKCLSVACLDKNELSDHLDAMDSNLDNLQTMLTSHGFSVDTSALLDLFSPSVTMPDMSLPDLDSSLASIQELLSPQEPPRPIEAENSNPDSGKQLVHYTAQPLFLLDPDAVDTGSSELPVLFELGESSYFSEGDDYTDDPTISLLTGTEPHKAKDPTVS

[24] = biological target: Genome polyprotein (dengue virus type 2, UniProt P29990); test: flavivirus cap methylation enzyme inhibition – biochemical, confirmation dose response, primary screen (AID 588689); type: functional
[25] = biological target: T5, Leucine aminopeptidase (Plasmodium falciparum 3D7, UniProt Q8IL11); test: P. falciparum M17LAP inhibitors, primary screen, biochemical, fluorogenic H-Leu-NHMec substrate, 1536-well (AID 1619); type: functional
T5 sequence (Q8IL11 whole entry): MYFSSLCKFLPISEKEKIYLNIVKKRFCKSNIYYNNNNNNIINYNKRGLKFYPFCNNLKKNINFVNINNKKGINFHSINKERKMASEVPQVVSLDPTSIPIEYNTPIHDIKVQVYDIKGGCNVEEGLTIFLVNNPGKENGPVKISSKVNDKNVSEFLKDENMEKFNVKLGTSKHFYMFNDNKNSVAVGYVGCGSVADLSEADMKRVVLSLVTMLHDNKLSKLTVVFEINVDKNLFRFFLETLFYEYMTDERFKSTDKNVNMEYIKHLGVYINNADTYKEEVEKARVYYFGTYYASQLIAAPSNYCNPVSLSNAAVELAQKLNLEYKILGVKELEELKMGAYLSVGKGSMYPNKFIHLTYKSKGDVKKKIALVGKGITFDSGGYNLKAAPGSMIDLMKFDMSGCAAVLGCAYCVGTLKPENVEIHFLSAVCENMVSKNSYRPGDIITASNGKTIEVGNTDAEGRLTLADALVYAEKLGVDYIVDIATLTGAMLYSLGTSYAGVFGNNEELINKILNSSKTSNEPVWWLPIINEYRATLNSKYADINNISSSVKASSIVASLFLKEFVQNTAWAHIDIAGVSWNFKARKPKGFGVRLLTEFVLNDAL

[26] = M. tuberculosis H37Rv growth inhibitors, H37Rv strain (AID 1626); type: functional
[27] = biological target: Cytochrome P450 2C19 (Homo sapiens, UniProt P33261); test: Cytochrome panel assay with activity outcomes. Panel member name: p450-cyp2c19 Compounds with AC50 equal or less than 10 uM are considered active; type: functional; conditions: read-out: AC50
Cytochrome P450 2C19, sequence (P33261 whole entry): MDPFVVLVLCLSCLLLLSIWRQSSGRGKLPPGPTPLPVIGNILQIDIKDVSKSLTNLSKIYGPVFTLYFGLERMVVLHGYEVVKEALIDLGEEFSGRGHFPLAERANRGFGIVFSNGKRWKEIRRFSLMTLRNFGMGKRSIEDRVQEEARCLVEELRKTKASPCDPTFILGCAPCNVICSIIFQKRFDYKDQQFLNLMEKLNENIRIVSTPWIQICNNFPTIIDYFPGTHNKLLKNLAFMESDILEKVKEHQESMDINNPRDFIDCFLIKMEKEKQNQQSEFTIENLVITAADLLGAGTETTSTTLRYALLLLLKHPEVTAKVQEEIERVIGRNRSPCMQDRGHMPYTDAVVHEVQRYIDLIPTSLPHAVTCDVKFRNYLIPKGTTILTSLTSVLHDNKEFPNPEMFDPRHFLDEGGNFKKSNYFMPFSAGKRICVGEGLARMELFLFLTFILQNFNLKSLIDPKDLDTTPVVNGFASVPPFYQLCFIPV

Cytochrome P450 3A4, sequence (P08684 whole entry): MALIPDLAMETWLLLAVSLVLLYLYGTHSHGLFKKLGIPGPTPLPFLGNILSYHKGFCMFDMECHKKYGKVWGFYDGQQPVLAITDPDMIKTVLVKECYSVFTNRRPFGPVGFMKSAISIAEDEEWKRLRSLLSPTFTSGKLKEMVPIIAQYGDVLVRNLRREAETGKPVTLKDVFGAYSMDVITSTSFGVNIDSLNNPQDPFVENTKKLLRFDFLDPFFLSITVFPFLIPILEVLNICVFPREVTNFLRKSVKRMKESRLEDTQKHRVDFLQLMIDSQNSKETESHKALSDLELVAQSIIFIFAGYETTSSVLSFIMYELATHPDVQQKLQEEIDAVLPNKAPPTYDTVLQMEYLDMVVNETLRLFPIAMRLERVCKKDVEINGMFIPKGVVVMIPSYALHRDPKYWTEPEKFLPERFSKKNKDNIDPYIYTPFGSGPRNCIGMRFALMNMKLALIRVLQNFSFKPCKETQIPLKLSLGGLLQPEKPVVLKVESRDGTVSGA
Nonstructural protein 1, sequence (Q194T2 whole entry): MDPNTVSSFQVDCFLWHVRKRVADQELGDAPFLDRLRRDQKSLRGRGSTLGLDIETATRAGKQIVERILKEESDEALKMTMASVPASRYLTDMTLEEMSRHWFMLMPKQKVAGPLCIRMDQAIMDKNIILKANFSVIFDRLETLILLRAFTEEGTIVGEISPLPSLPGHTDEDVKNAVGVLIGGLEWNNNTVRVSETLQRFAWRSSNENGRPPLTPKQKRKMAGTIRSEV
Trypsin, sequence (P00761 whole entry): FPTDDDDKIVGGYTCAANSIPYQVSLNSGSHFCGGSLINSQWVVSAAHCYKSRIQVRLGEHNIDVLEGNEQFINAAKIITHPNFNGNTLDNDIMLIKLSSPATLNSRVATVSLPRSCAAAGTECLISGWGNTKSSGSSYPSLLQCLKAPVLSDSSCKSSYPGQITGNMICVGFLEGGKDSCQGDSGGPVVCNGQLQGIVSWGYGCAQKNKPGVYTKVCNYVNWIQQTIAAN
Genome polyprotein, sequence (P29990 2492-3391 limits assumed): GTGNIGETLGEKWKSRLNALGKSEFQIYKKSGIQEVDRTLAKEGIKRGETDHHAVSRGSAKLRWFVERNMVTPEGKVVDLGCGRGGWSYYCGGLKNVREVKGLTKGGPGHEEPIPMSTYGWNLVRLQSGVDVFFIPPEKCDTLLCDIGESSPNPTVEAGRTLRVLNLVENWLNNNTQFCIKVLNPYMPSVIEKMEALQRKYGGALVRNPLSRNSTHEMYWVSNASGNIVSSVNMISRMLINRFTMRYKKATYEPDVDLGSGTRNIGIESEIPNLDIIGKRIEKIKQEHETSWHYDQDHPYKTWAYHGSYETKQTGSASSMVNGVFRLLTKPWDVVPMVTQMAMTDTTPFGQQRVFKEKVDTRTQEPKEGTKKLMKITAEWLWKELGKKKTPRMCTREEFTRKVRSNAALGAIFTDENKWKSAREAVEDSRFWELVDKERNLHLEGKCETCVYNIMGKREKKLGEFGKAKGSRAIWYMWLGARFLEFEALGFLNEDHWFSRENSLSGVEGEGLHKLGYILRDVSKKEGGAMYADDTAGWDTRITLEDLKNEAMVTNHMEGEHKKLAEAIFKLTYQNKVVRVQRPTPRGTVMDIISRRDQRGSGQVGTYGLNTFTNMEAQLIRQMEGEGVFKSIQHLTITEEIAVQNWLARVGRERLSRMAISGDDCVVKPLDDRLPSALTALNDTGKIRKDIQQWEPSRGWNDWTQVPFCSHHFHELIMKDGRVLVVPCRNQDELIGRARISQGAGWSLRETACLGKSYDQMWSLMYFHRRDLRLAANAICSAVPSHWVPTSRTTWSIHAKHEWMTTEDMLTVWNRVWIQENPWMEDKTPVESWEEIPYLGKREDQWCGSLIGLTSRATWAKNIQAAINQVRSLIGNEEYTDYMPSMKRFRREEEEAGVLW
Luciferin 4-monooxygenase, sequence (P08659 whole entry): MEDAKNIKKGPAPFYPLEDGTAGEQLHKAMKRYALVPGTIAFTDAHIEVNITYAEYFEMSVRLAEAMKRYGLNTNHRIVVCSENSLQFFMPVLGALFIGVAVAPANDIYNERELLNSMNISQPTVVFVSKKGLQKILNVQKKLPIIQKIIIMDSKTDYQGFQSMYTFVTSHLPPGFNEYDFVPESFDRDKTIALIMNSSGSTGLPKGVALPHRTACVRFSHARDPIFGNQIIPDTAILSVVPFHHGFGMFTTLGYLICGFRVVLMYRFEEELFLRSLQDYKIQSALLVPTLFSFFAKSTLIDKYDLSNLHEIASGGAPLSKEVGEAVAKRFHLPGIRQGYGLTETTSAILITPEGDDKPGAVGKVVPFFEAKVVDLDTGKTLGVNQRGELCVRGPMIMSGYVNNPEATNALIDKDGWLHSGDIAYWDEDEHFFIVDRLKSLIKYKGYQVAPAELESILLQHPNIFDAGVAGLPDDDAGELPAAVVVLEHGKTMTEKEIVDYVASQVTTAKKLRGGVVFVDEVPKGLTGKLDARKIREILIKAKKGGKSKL

C[C@@H]1CC=C[C@H]2[C@H]1C(=O)N(Cc1ccccc1)[C@H]2c1ccc(/C=C/c2ccccc2)cc1F
CC50 [1]: > 40 µM (active)

C#CCCCCCCCCCCCc1ccco1
AC50 [2]: 39.8 µM (inconclusive)

C=CCNc1nc(-c2ccccn2)nnc1-c1ccccc1
EC50 [3]: 5.1 µM (active) | EC50 [4]: > 350 µM (not active) | IC50 [5]: 1.25 µM (active) | EC50 [6]: 2.27 µM (active) | AC50 [7]: 3.97 µM (active) | AC50 [8]: 3.17 µM (active) | EC50 [9]: < 0.2 µM (active) | EC50 [10]: 7.13 µM (active) | EC50 [11]: > 50 µM (not active) | AC50 [12]: 6.36 µM (active)

COc1cc(O)c(C)c(O)c1 [2,6-DIHYDROXY-4-METHOXYTOLUENE]
AC50 [2]: 39.8 µM (inconclusive)

CC(C)NC(=O)[C@H]1C[C@@H]1[C@H](NC(=O)OCc1ccccc1)c1ccccc1
AC50 [2]: 7.94 µM (inconclusive)

CCOc1ccc2[nH]c3c(N4CCc5ccccc5C4)ncnc3c2c1
IC50 [13]: 5.99 µM (active) | EC50 [14]: 10.4 µM (active) | EC50 [15]: > 150 µM (not active) | EC50 [16]: 19.9 µM (active) | AC50 [17]: 6.04 µM (active)

COc1ccc(-c2c(C(F)(F)F)oc3cc(OCC(=O)Nc4ccccc4C(F)(F)F)ccc3c2=O)cc1OC
EC50 [18]: 3.72 µM (active) | EC50 [19]: 3.45 µM (active) | CC50 [1]: 10.9 µM (active)

COc1cccc(/C=N/NC(=O)NC23CC4CC(CC(C4)C2)C3)c1O
CC50 [1]: 23.3 µM (active)

COc1cccc(OCc2nnc(SCC(=O)NCc3ccco3)n2CCc2ccccc2)c1
IC50 [20]: > 50 µM (not active)

CCOc1cc([N+](=O)[O-])cc(/C=C2/NC(=O)N(Cc3ccccc3F)C2=O)c1O
CC50 [21]: > 40 µM (active) | IC50 [22]: 55.6 µM (active) | EC50 [23]: > 260 µM (inactive) | IC50 [24]: 58.8 µM (active)

COCCCn1c(=N)c(C(=O)NCC2CCCO2)cc2c(=O)n3cccc(C)c3nc21 (stereo unspecified)
IC50 [22]: 78.4 µM (active)

Cc1ncc(CC(=O)n2cc(C(=O)c3cc(F)ccc3O)cn2)s1
IC50 [25]: 71.1 µM (active)

COc1ccc(NC(=O)CC(Cc2ccccc2)C(=O)O)cc1 (stereo unspecified)
IC50 [25]: 18.7 µM (active)

Oc1c(/C=N/c2ccc(Oc3ccccc3)cc2)cnn1-c1cccc(Cl)n1
IC50 [26]: > 100 µM (active) | AC50 [27]: 11.2 µM (inconclusive)

CCC/C(=N/Nc1ccc(Cl)cc1)c1cnnc(-c2ccccc2)n1
IC50 [20]: 3.85 µM (active)

O=C(CCC(=O)Nc1ccc(Oc2ccccc2)cc1)NCCO
IC50 [26]: > 100 µM (active)

Cc1nccc(-c2cccc(N/N=C(\C#N)C(=O)c3ccccc3)c2)n1
IC50 [22]: 16 µM (active)
